Legend:
Assay in all cases: two-electrode voltage clamp, Xenopus oocytes
Format in all cases: cell-based
UNC-105h [1] = molecular target: T1, UNC-105h (Caenorhabditis elegans, UniProt Q09274); details: pH 7.4, -60 mV, ND96, room temperature; second, current-restoring phase of biphasic response; text b54 prints 6.7 µM instead
T1 construct: isoform h cDNA in KSM vector, Xenopus laevis oocytes, homomeric channel (trimer by known biology)
T1 sequence (Q09274 1-887): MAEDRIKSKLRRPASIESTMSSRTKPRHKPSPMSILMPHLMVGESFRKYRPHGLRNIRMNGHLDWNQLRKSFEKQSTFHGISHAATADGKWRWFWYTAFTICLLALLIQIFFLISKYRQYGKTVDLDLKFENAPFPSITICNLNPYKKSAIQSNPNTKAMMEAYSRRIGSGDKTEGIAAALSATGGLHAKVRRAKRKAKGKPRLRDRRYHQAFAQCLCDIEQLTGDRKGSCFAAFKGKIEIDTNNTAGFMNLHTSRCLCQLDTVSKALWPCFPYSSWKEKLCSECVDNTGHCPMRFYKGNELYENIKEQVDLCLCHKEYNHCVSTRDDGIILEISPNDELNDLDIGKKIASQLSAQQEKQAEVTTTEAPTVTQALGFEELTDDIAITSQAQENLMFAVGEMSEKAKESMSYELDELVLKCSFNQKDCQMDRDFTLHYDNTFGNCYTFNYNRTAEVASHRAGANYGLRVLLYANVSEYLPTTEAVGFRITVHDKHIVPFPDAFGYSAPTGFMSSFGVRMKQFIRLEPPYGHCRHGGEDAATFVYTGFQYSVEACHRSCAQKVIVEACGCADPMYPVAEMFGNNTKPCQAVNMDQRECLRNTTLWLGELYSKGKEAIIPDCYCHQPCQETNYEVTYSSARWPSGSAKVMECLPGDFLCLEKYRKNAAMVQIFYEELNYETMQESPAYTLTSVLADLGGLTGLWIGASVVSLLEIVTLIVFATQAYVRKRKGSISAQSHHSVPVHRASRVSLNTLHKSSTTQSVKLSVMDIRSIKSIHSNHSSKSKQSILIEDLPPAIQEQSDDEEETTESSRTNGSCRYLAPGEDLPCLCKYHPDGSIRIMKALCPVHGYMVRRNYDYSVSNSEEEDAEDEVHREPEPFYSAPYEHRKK

ASIC-1 = molecular target: T2, ASIC-1 (Caenorhabditis elegans, UniProt O01635)
T2 construct: full-length cDNA in KSM vector, Xenopus laevis oocytes, homomeric channel (trimer by known biology)
T2 sequence (O01635 1-823): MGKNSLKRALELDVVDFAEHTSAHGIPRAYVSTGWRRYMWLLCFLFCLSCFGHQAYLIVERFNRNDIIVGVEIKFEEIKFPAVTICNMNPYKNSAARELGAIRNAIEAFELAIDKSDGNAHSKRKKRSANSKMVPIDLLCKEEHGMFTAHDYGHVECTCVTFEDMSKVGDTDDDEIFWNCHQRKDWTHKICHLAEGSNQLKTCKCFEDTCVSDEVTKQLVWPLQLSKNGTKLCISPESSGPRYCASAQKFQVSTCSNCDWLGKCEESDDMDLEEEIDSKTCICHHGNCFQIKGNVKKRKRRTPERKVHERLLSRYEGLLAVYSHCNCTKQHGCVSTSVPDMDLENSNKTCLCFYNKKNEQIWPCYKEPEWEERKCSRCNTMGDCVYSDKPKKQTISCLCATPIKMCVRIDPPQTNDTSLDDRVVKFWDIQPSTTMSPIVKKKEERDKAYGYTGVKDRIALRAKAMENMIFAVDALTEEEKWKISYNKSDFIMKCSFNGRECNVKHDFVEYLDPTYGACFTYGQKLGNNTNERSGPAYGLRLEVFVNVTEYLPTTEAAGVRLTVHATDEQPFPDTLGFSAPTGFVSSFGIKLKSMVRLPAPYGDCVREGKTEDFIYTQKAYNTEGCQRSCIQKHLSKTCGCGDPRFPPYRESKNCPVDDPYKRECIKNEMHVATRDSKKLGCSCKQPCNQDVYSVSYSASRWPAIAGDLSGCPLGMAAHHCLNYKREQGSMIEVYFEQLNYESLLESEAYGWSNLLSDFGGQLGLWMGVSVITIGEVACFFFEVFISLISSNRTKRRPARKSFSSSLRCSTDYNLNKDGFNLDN

UNC-105h [2] = molecular target: T1, UNC-105h; details: pH 7.4, -60 mV, ND96, room temperature; paradoxical biphasic response, low-concentration inhibition

SMILES: N=C(N)NC(=O)c1nc(Cl)c(N)nc1N [amiloride]
- EC50 (UNC-105h [1]): 5.9 µM
- IC50 (ASIC-1): 108 µM
- IC50 (UNC-105h [2]): 0.76 µM
